# Like-named read-outs stand apart in the source and are kept apart here.
# How the values were obtained:
# [1] = target: T1, α-Glucosidase from Saccharomyces cerevisiae (EC 3.2.1.20) (Saccharomyces cerevisiae, UniProt P53341); test: biochemical
# T1 construct: purchased Sigma-Aldrich
# Experimental: Ethyl acetoacetate, salicylaldehyde and absolute ethanol were analytical pure grade and purchased from Aladdin (Shanghai) Reagent Co., Ltd. Piperidine; glacial acetic acid, petroleum ether and ethyl acetate were supplied by Titan (Shanghai) Technology Co., Ltd.; α-Glucosidase from Saccharomyces cerevisiae (EC 3.2.1.20), 4-nitrophenyl-α-D-[…] (p-NPG), and Dimethyl sulfoxide (DMSO) were supported by Sigma-Aldrich (United States) Chemical Co., Ltd. Melting points were tested on a micro melting-point instrument. ^1H NMR spectra were measured (CDCl3) by Bruker DPX-500 MHz AVANCE with TMS as an internal standard. Mass spectroscopy was performed on a (LCQTM). The absorbance was recorded by a micro-plate reader.
# The α-glucosidase inhibitory activity assay of coumarin-chalcone derivatives 3 (a∼v) was conducted using p-NPG as a substrate. ([Pogaku et al., 2019]; [Saeedi et al., 2019]; [Xu et al., 2019]). 10 μl of the test compound and 10 μl of the enzyme (final concentration 0.1 U/ml) were added to 130 μl of PBS (0.1 M phosphate, pH 6.8), and incubated at 37°C for 10 min. Then p-NPG (final concentration 0.25 mM) was added and the absorbance change was measured by a micro-plate reader at 405 nm. All experiments were assayed four times. The percentage of inhibition was obtained using the formula: Inhibition (%) = […] × 100%, where OD1 and OD0 represent the absorbance value of the experimental group and the blank group respectively. […] The IC50 value of each compound was obtained from the fitting curve of inhibition vs. compound concentration.
# [2] = target: T1, α-Glucosidase from Saccharomyces cerevisiae (EC 3.2.1.20); test: α-Glucosidase inhibition kinetics (v vs. enzyme concentration, Lineweaver-Burk plots); type: biochemical; details: for Inhibition mechanism (inhibition type): Lineweaver-Burk double reciprocal plot, p-NPG 0.25-1 mM; for Inhibition mechanism (inhibition type) / Reversibility of inhibition: compound 0, 25, 30, 40 μM; for Reversibility of inhibition: plots of v vs. α-glucosidase concentration (0.075-0.15 U/mL); for KIS: enzyme-substrate complex, secondary plot of intercept vs. compound concentration
# Text: Generally, according to the type of inhibition, enzyme inhibitors can be divided into reversible inhibitors and irreversible inhibitors ([Abuelizz et al., 2019]). In order to obtain the principle of the combination of enzyme inhibitors and enzymes, it is necessary to study the interaction between enzyme inhibitors and enzymes. Compounds 3j, 3q and 3t with strongest inhibitory activity were chosen for the research of inhibition kinetics against α-glucosidase (the inhibitory mechanism analysis of compound 3t was shown in Figure 2 and figures for the inhibitory mechanism analysis of compounds 3j and 3q have been shown in the supporting information). A series of plots of enzymatic reaction rate (v) vs. α-glucosidase concentration in the presence of inhibitors were generated to identify the type of inhibition that is listed in Figure 1.
# The inhibit type of inhibitors on α-glucosidase include four types, named competitive inhibition, non-competitive inhibition, mixed inhibition, and anti-competitive inhibition ([Abuelizz et al., 2019]). The inhibition modes of compounds 3j, 3q and 3t against α-glucosidase were investigated using Lineweaver-Burk double reciprocal plot.
# The type of inhibition was identified by the plots of enzymatic reaction rate (V) vs. α-glucosidase concentration. The test method was similar to the above enzyme activity assay. In the presence of different concentrations of compounds 3j, 3q and 3t, respectively (0, 25, 30, and 40 μM), the absorbance change was detected under different concentrations of α-glucosidase (0.075, 0.1, 0.125, and 0.15 U/mL).
# The inhibition mode was also detected using a similar method to that described above. In the presence of different concentrations of compounds 3j, 3q and 3t, respectively (0, 25, 30 and 40 μM), the absorbance change was measured under different concentrations of p-NPG (0.25, 0.5, 0.75, 1 mM). The inhibition mode of the inhibitor was obtianed using Lineweaver-Burk plots. The constant KI was obtained by secondary plots of the derivatives concentration (I) vs. Slope, constant KIS was obtained by secondary plots of the derivatives concentration (I) vs. Intercept.
# [3] = p-NPG 0.25 mM, enzyme 0.1 U/ml, PBS pH 6.8, 37°C, read-out: IC50, α-glucosidase inhibitory activity
# T1 sequence (P53341 whole entry): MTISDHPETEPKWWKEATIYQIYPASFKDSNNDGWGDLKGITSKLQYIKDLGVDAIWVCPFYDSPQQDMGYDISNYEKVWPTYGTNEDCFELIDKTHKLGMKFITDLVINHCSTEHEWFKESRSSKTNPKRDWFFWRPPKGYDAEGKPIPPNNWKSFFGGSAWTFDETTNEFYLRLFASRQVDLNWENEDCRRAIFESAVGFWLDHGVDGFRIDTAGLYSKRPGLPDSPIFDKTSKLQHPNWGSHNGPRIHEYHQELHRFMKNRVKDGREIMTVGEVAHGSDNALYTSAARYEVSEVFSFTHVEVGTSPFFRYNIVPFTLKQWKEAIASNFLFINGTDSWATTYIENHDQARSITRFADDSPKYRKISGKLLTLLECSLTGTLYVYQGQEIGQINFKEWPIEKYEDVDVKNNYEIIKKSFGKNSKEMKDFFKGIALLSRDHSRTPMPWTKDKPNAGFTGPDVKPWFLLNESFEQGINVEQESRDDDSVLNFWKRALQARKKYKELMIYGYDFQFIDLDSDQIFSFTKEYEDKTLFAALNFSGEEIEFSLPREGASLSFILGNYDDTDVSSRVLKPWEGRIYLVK
"IC50 [1, 3] [µM]",SMILES,IC50 [1] [µM],also measured
49.7 ± 3.28,"O=C(/C=C/c1ccc(F)c(F)c1)c1cc2ccccc2oc1=O [Compound 3k, (E)-3-[3-(3,4-difluorophenyl)acryloyl]-2H-chromen-2-one]",,
75.5 ± 0.98,"CSc1ccc(/C=C/C(=O)c2cc3ccccc3oc2=O)cc1 [Compound 3f, (E)-3-{3-[4-(methylthio)phenyl]acryloyl}-2H-chromen-2-one]",,
,"O=C(/C=C/c1cccc(F)c1)c1cc2ccccc2oc1=O [Compound 3h, (E)-3-[3-(3-fluorophenyl)acryloyl]-2H-chromen-2-one]",45.7 ± 1.28,
,"O=C(/C=C/c1ccccc1Cl)c1cc2ccccc2oc1=O [Compound 3o, (E)-3-[3-(2-chlorophenyl)acryloyl]-2H-chromen-2-one]",59.7 ± 1.73,
,"O=C(/C=C/c1ccc(F)cc1)c1cc2ccccc2oc1=O [Compound 3i, (E)-3-[3-(4-fluorophenyl)acryloyl]-2H-chromen-2-one]",35.68 ± 0.28,
64.7 ± 1.82,"O=C(/C=C/c1cccc(C(F)(F)F)c1)c1cc2ccccc2oc1=O [Compound 3m, (E)-3-{3-[3-(trifluoromethyl)phenyl]acryloyl}-2H-chromen-2-one]",,
103 ± 1.45,"O=C(/C=C/c1cc2ccccc2[nH]1)c1cc2ccccc2oc1=O [Compound 3v, (E)-3-[3-( ^ 1 H-indol-2-yl)acryloyl]-2H-chromen-2-one]",,
60.9 ± 2.74,"COc1ccccc1/C=C/C(=O)c1cc2ccccc2oc1=O [Compound 3c, (E)-3-[3-(2-methoxyphenyl)acryloyl]-2H-chromen-2-one]",,
,"O=C(/C=C/c1cccc(Cl)c1)c1cc2ccccc2oc1=O [Compound 3p, (E)-3-[3-(3-chlorophenyl)acryloyl]-2H-chromen-2-one]",52.6 ± 2.45,
105 ± 1.98,"COc1ccc(/C=C/C(=O)c2cc3ccccc3oc2=O)cc1 [Compound 3e, (E)-3-[3-(4-methoxyphenyl)acryloyl]-2H-chromen-2-one]",,
,"O=C(/C=C/c1ccccc1Br)c1cc2ccccc2oc1=O [Compound 3r, (E)-3-[3-(2-bromophenyl)acryloyl]-2H-chromen-2-one]",38.6 ± 1.87,
,"O=C(/C=C/c1ccc(Br)cc1)c1cc2ccccc2oc1=O [Compound 3t, (E)-3-[3-(4-bromophenyl)acryloyl]-2H-chromen-2-one]",24.1 ± 2.36,Ki [2]: 11 µM; Inhibition mechanism (inhibition type) [2]: mixed-type inhibition; Reversibility of inhibition [2]: reversible
96.4 ± 1.37,"COc1cccc(/C=C/C(=O)c2cc3ccccc3oc2=O)c1 [Compound 3d, (E)-3-[3-(3-methoxyphenyl)acryloyl]-2H-chromen-2-one]",,
,"O=C(/C=C/c1ccccc1)c1cc2ccccc2oc1=O [Compound 3a, (E)-3-cinnamoyl-2H-chromen-2-one]",125.3 ± 1.18,
95.2 ± 1.35,"Cc1ccc(/C=C/C(=O)c2cc3ccccc3oc2=O)cc1 [Compound 3b, (E)-3-[3-(p-tolyl)acryloyl]-2H-chromen-2-one]",,
71.5 ± 2.14,"O=C(/C=C/c1ccccc1C(F)(F)F)c1cc2ccccc2oc1=O [Compound 3l, (E)-3-{3-[2-(trifluoromethyl)phenyl]acryloyl}-2H-chromen-2-one]",,
53.6 ± 1.95,"O=C(/C=C/c1ccc(C(F)(F)F)cc1)c1cc2ccccc2oc1=O [Compound 3n, (E)-3-{3-[4-(trifluoromethyl)phenyl]acryloyl}-2H-chromen-2-one]",,
,"O=C(/C=C/c1ccc(Cl)cc1)c1cc2ccccc2oc1=O [Compound 3q, (E)-3-[3-(4-chlorophenyl)acryloyl]-2H-chromen-2-one]",29.7 ± 2.68,Ki [2]: 16.1 µM; Inhibition mechanism (inhibition type) [2]: mixed-type inhibition; KIS ([2]; inhibition constant): 20.34 µM; Reversibility of inhibition [2]: reversible
109 ± 2.69,"O=C(/C=C/c1cccs1)c1cc2ccccc2oc1=O [Compound 3u, (E)-3-[3-(thiophen-2-yl)acryloyl]-2H-chromen-2-one]",,
,"O=C(/C=C/c1cccc(Br)c1)c1cc2ccccc2oc1=O [Compound 3s, (E)-3-[3-(3-bromophenyl)acryloyl]-2H-chromen-2-one]",35.6 ± 2.18,
,"O=C(/C=C/c1ccccc1F)c1cc2ccccc2oc1=O [Compound 3g, (E)-3-[3-(2-fluorophenyl)acryloyl]-2H-chromen-2-one]",48.4 ± 1.42,

SMILES,"IC50 [1, 3] [µM]",IC50 [1] [µM],also measured
"O=C(/C=C/c1ccc(F)cc1F)c1cc2ccccc2oc1=O [Compound 3j, (E)-3-[3-(2,4-difluorophenyl)acryloyl]-2H-chromen-2-one]",30.3 ± 2.53,,"Inhibition mechanism (inhibition type) [2]: mixed-type inhibition; KIS ([2]; inhibition constant): 25.94 µM; Ki ([2]; inhibition constant, free enzyme, secondary plot of slope vs. compound concentration, read-out: KI): 19.5 µM; Reversibility of inhibition [2]: reversible"

# From publication PMC9271751, “Synthesis and Evaluation of Coumarin-Chalcone Derivatives as α-Glucosidase Inhibitors” (Frontiers in Chemistry, 2022)
